Assay results: PMC11809180, “RA-PR058, a novel ramalin derivative, reduces BACE1 expression and phosphorylation of tau in Alzheimer’s disease mouse models” (Animal Cells and Systems, 2025)

Experiments:
[1] = test system: 5xFAD hippocampal neurons; assay: vGlut1-pHluorin (vG-pH) synaptic transmission assay in primary hippocampal neurons; assay type: cell-based, mouse
Experimental: Hippocampal CA1-CA3 regions were isolated from postnatal (0–3 d old) 5xFAD mice. For dissociation, the dissected tissues were incubated with trypsin (Sigma) and DNase (Sigma) for 10 minutes at 37 ℃, followed by gentle trituration with pipette. 4.0–5.0 × 10^4 cells were plated on poly-ornithine-coated coverslips. Cells were maintained in culture media consisting of Neurobasal™-A Medium (Gibco) supplemented with GlutaMAX™ Supplement (Gibco) and B-27™ Supplement (Gibco) in a humidified incubator set at 37 ℃ with 5% CO2. Neurons were transfected 7 days after plating and further incubated for 14–21 days in culture medium. All results are obtained from at least three independent primary cultures. […]
For optical imaging, primary cultured hippocampal neurons were transfected with vGlut1-pHluorin (vG-pH) using the Ca^2+ phosphate precipitation method, as previously described (Bae et al. ([2020])). […] Fluorescence excitation/emission and collection were achieved using a 40 × Fluar Zeiss objective lens (1.3 NA) and 500–550 nm emission and 498 nm dichroic filters (Chroma). […]
All images were analyzed using ImageJ with plugin Time Series Analyzer. Synaptic boutons were selected as oval regions of interest (diameter, 10 pixels), and the intensity of fluorescence at synapses was measured. Fluorescence traces were analyzed using Origin Pro.

JNK = JNK phosphorylation in cortex of 3xTg-AD mice (western blot); assay type: in vivo, mouse; conditions: 20 mg/kg oral daily 4 weeks, p-JNK normalized with JNK
Experimental: 3xTg-AD (B6;129-Tg(APPSwe,tauP301L)1Lfa Psen1^tm1Mpm/Mmjax) mice and their littermate wild-type (WT) mice were used in this study. Each experimental group consisted of 4–8 mice, with groups designated as WT, 3xTg-AD Vehicle, and 3xTg-AD RA-PR058. All mice were maintained in a 12-hour light/dark cycle with free access to food and water. 7-month-old age of mice were administered with 20 mg/kg of RA-PR058 orally once a day for 1 month followed by the elevated plus maze test. All animal experimental procedures were approved by the Institutional Animal Care and Use Committee of Sungkyunkwan University (SKKUIACUC2022-10-41-1).
After EPM was conducted, mice were sacrificed, and brain tissues were collected as previously described (Park et al. [2021]). Mice were anesthetized by injecting Zoletil (Virbac) and Rompun (Bayer) intraperitoneally. After mice were anesthetized, they were perfused with phosphate-buffered saline (PBS). Then, brains were extracted and cut into two hemispheres; one hemisphere was preserved in 4% paraformaldehyde and the other was dissected into the cortex and hippocampus. […]
Samples for western blot analysis were prepared as previously described (Gwon et al. [2012]). […] Protein concentrations were measured using Pierce™ BCA Protein Assay Kits (Thermo Fisher Scientific). […] Protein bands were quantified using ImageJ (NIH).

In the case of `Cl.N[C@@H](CCC(=O)NNc1ccccc1F)C(F)F` [RA-PR058, (S)-4-amino-5,5-difluoro-N'-(2-fluorophenyl)pentanehydrazide hydrochloride], the “Recovery of synaptic transmission dysfunction” value ([1]; 5xFAD hippocampal neurons, 10 μM RA-PR058, 100 AP at 10 Hz, did not reach statistical significance) is reported as “partially recovered”, the “Mean amplitude of 100AP vG-pH response” value ([1]; RA-PR058 treated 5xFAD hippocampal neurons, 10 Hz for 10 s, normalized to maximal NH4Cl response, mean ± SEM, n = 6, untreated 5xFAD 0.11 ± 0.01, WT 0.20 ± 0.01) is reported as 0.15 ± 0.03 and the JNK phosphorylation (JNK) is reported as “significantly downregulated”.
